Measured values: patent US8192962B2, “Processes for detecting toxic substances” (Daikin Industries, Ltd., priority 2001, dated 2012)

System: Energy system protein genes
Assay: DNA chip mRNA expression in yeast, energy system protein genes (Table 4)
Assay type: cell-based, Saccharomyces cerevisiae S288C
Method in brief: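 Cells were grown at 25° C. in YPD, treated at logarithmic phase for 2 h with a chemical at a concentration inhibiting growth but not causing death, and compared with untreated cultures. Labeled cDNA was hybridized to a DNA chip carrying all yeast genes, and the expression ratio was taken from scanner fluorescence.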

[Cl][Hg][Cl] [(3), HgCl2]
The level of expressed mRNA in the presence of chemical substance/The level of expressed mRNA in the absence of chemical substance (yeast gene YJR048W): 2.2 | The level of expressed mRNA in the presence of chemical substance/The level of expressed mRNA in the absence of chemical substance (yeast gene YJR121W, cells incubated two hours with the chemical substance): 3.3 | The level of expressed mRNA in the presence of chemical substance/The level of expressed mRNA in the absence of chemical substance (yeast gene YJR155W): 1.4 | The level of expressed mRNA in the presence of chemical substance/The level of expressed mRNA in the absence of chemical substance (yeast gene YKL016C, cells incubated two hours with the chemical substance): 0.7 | The level of expressed mRNA in the presence of chemical substance/The level of expressed mRNA in the absence of chemical substance (yeast gene YKL060C, cells incubated two hours with the chemical substance): 2.5 | The level of expressed mRNA in the presence of chemical substance/The level of expressed mRNA in the absence of chemical substance (yeast gene YKL141W, cells incubated two hours with the chemical substance): 4.7 | The level of expressed mRNA in the presence of chemical substance/The level of expressed mRNA in the absence of chemical substance (yeast gene YKL148C, cells incubated two hours with the chemical substance): 3.7 | The level of expressed mRNA in the presence of chemical substance/The level of expressed mRNA in the absence of chemical substance (yeast gene YKR009C, cells incubated two hours with the chemical substance): 1.5 | The level of expressed mRNA in the presence of chemical substance/The level of expressed mRNA in the absence of chemical substance (yeast gene YKR058W, cells incubated two hours with the chemical substance, 25° C., YPD medium): 1.4 | The level of expressed mRNA in the presence of chemical substance/The level of expressed mRNA in the absence of chemical substance (yeast gene YKR097W): 1.3 | The level of expressed mRNA in the presence of chemical substance/The level of expressed mRNA in the absence of chemical substance (yeast gene YLL041C, cells incubated two hours with the chemical substance): 4.6 | The level of expressed mRNA in the presence of chemical substance/The level of expressed mRNA in the absence of chemical substance (yeast gene YLR038C, cells incubated two hours with the chemical substance): 0.6 | The level of expressed mRNA in the presence of chemical substance/The level of expressed mRNA in the absence of chemical substance (yeast gene YLR044C, cells incubated two hours with the chemical substance): 2.2 | The level of expressed mRNA in the presence of chemical substance/The level of expressed mRNA in the absence of chemical substance (yeast gene YLR134W, cells incubated two hours with the chemical substance): 2.3 | The level of expressed mRNA in the presence of chemical substance/The level of expressed mRNA in the absence of chemical substance (yeast gene YLR258W, cells incubated two hours with the chemical substance): 4.2 | The level of expressed mRNA in the presence of chemical substance/The level of expressed mRNA in the absence of chemical substance (yeast gene YLR284C, cells incubated two hours with the chemical substance): 3.8 | The level of expressed mRNA in the presence of chemical substance/The level of expressed mRNA in the absence of chemical substance (yeast gene YLR295C, cells incubated two hours with the chemical substance, 25° C., YPD medium): 1.1 | The level of expressed mRNA in the presence of chemical substance/The level of expressed mRNA in the absence of chemical substance (yeast gene YLR304C, cells incubated two hours with the chemical substance): 5.0 | The level of expressed mRNA in the presence of chemical substance/The level of expressed mRNA in the absence of chemical substance (yeast gene YLR345W): 1.4 | The level of expressed mRNA in the presence of chemical substance/The level of expressed mRNA in the absence of chemical substance (yeast gene YLR354C, cells incubated two hours with the chemical substance): 2.3 | The level of expressed mRNA in the presence of chemical substance/The level of expressed mRNA in the absence of chemical substance (yeast gene YLR377C, cells incubated two hours with the chemical substance): 1.8 | The level of expressed mRNA in the presence of chemical substance/The level of expressed mRNA in the absence of chemical substance (yeast gene YLR395C, cells incubated two hours with the chemical substance): 2.2 | The level of expressed mRNA in the presence of chemical substance/The level of expressed mRNA in the absence of chemical substance (yeast gene YML087C): 0.8 | The level of expressed mRNA in the presence of chemical substance/The level of expressed mRNA in the absence of chemical substance (yeast gene YML120C, cells incubated two hours with the chemical substance): 1.9 | The level of expressed mRNA in the presence of chemical substance/The level of expressed mRNA in the absence of chemical substance (yeast gene YML129C, cells incubated two hours with the chemical substance): 0.9 | The level of expressed mRNA in the presence of chemical substance/The level of expressed mRNA in the absence of chemical substance (yeast gene YMR073C, cells incubated two hours with the chemical substance): 1.2 | The level of expressed mRNA in the presence of chemical substance/The level of expressed mRNA in the absence of chemical substance (yeast gene YMR118C): 1.4 | The level of expressed mRNA in the presence of chemical substance/The level of expressed mRNA in the absence of chemical substance (yeast gene YMR205C, cells incubated two hours with the chemical substance): 2.3 | The level of expressed mRNA in the presence of chemical substance/The level of expressed mRNA in the absence of chemical substance (yeast gene YMR261C, cells incubated two hours with the chemical substance): 3.6 | The level of expressed mRNA in the presence of chemical substance/The level of expressed mRNA in the absence of chemical substance (yeast gene YMR267W, cells incubated two hours with the chemical substance, 25° C., YPD medium): 0.7 | The level of expressed mRNA in the presence of chemical substance/The level of expressed mRNA in the absence of chemical substance (yeast gene YMR323W, cells incubated two hours with the chemical substance): 2.9 | The level of expressed mRNA in the presence of chemical substance/The level of expressed mRNA in the absence of chemical substance (yeast gene YNL071W): 1.7 | The level of expressed mRNA in the presence of chemical substance/The level of expressed mRNA in the absence of chemical substance (yeast gene YNL202W, cells incubated two hours with the chemical substance): 1.2 | The level of expressed mRNA in the presence of chemical substance/The level of expressed mRNA in the absence of chemical substance (yeast gene YNL241C): 4.3 | The level of expressed mRNA in the presence of chemical substance/The level of expressed mRNA in the absence of chemical substance (yeast gene YNL331C): 1.3 | The level of expressed mRNA in the presence of chemical substance/The level of expressed mRNA in the absence of chemical substance (yeast gene YOL086C, cells incubated two hours with the chemical substance): 2.2 | The level of expressed mRNA in the presence of chemical substance/The level of expressed mRNA in the absence of chemical substance (yeast gene YOL165C): 1.8 | The level of expressed mRNA in the presence of chemical substance/The level of expressed mRNA in the absence of chemical substance (yeast gene YOR142W, cells incubated two hours with the chemical substance): 3.4 | The level of expressed mRNA in the presence of chemical substance/The level of expressed mRNA in the absence of chemical substance (yeast gene YOR178C, cells incubated two hours with the chemical substance): 4.8 | The level of expressed mRNA in the presence of chemical substance/The level of expressed mRNA in the absence of chemical substance (yeast gene YOR388C, cells incubated two hours with the chemical substance): 1.3 | The level of expressed mRNA in the presence of chemical substance/The level of expressed mRNA in the absence of chemical substance (yeast gene YPL031C, cells incubated two hours with the chemical substance): 1.4 | The level of expressed mRNA in the presence of chemical substance/The level of expressed mRNA in the absence of chemical substance (yeast gene YPL061W, cells incubated two hours with the chemical substance): 5.0 | The level of expressed mRNA in the presence of chemical substance/The level of expressed mRNA in the absence of chemical substance (yeast gene YPL088W): 0.6 | The level of expressed mRNA in the presence of chemical substance/The level of expressed mRNA in the absence of chemical substance (yeast gene YPL171C): 3.5 | The level of expressed mRNA in the presence of chemical substance/The level of expressed mRNA in the absence of chemical substance (yeast gene YPL240C): 2.4 | The level of expressed mRNA in the presence of chemical substance/The level of expressed mRNA in the absence of chemical substance (yeast gene YPL262W, cells incubated two hours with the chemical substance): 3.8 | The level of expressed mRNA in the presence of chemical substance/The level of expressed mRNA in the absence of chemical substance (yeast gene YPL275W, cells incubated two hours with the chemical substance): 1.3 | The level of expressed mRNA in the presence of chemical substance/The level of expressed mRNA in the absence of chemical substance (yeast gene YPL276W, cells incubated two hours with the chemical substance): 1.6 | The level of expressed mRNA in the presence of chemical substance/The level of expressed mRNA in the absence of chemical substance (yeast gene YPR048W, cells incubated two hours with the chemical substance): 0.9 | The level of expressed mRNA in the presence of chemical substance/The level of expressed mRNA in the absence of chemical substance (yeast gene YPR184W, cells incubated two hours with the chemical substance): 5.7
